Laboratory results from patent US6410545B1, “Lipid lowering quinazoline dietary supplement composition” (Parker Hughes Institute, priority 1998, dated 2002).

Key:
[1] = test system: hypercholesterolemic C57B⅙ mice; test: Serum total cholesterol in hypercholesterolemic C57B⅙ mice on Paigen's cocoa butter diet; assay type: in vivo; settings: apo e+/+ C57B1/6 mice, cocoa butter diet two weeks, then drug 1 week at 1.6 mg/kg/day i.p.
Experimental: Three- to four-week old C57B⅙ male mice (Taconic, Germantown, N.Y., USA) were kept in micro-isolator cages on a 12-hour day/night cycle and fed the Paigen's cocoa butter diet (15.8% fat, 1.25% cholesterol, and 0.5% sodium cholate) (Harlan Teklad, Madison, Wis., USA) for two weeks prior to initiation of lipid lowering therapy. Paigen's diet is described in Nishina et.al., 1993, J. Lipid Res. 34: 1413-1422.
(§1) Animals were treated with test compounds by intraperitoneal injection daily for 7 days. A range of doses was administered. Control animals received vehicle alone. The effect of quinazoline derivatives on total cholesterol, LDL, HDL, liver enzymes, and glucose was analyzed. The mice tissues were also examined histologically.
(§2) Serum total cholesterol was measured enzymatically using the cholesterol kit from Sigma Chemical Co. (St. Louis, Mo., USA). For liver tissue lipid measurements, lipids were extracted from homogenized hepatic tissues using the method of Bligh and Dyer (Bligh, et al., Can. J. Biochem. Phys. 1959, 37:911-917). One gram of liver tissue was homogenized in 1 ml of distilled water and extracted with 4 ml of chloroform/methanol (1:1, v/v). The chloroform phase containing the lipids was evaporated under a stream of nitrogen, the lipids dissolved in 100 μL of isopropanol, and subjected to cholesterol determination as described above. Triglyceride (TG) contents were determined using the TG kit from Sigma Chemical Co.
A high cholesterol and high fat diet was used to induce hypercholesterolemia in C57B⅙mice, using the methods described by Paigen, et al. (Nishina, et al., 1993, J. Lipid Res. 34:1413-1422) and as described for Example 1.

[2] = test system: apo e−/− mice; test: Serum total cholesterol in apolipoprotein E deficient mice; assay type: in vivo; settings: apo e−/− (C57B1/6) mice, Western diet two weeks, then drug 1 week at 40 mg/kg/day
Experimental: Three- to four-week old apolipoprotein E deficient (apo E^−/−) mice were the progeny of breeding pairs of apo E knockout (apo EKO) mice obtained from Jackson Labs. (Bar Harbor, Me., USA). Mice were fed either regular rodent chow (5% fat and 0% cholesterol) (Teklad-LM 485, Harlan Teklad, Madison, Wis., USA), the Paigen's cocoa butter diet, or the Western diet (21.22% fat and 0.2% cholesterol) (Harlan Teklad, Madison, Wis., USA) for two weeks prior to treatment.
as §1, §2
On regular rodent chow, the serum total cholesterol level of apo e^−/− mice was 836±57 mg/dL (n=47). After one week therapy with 8 mg/kg/day WHI-P164 (n=12), the mean serum total cholesterol level was reduced to 551±29 mg/dL (p=0.02).
When challenged with a cholesterol-rich diet, these animals developed frank hypercholesterolemia due to delayed clearance of intestinal chylomicrons which shuttle the dietary cholesterol from the intestine to the liver. In the present study, all of the 46 ApoE-deficient mice that were fed Western diet (14) became severely hypercholesterolemic with a mean serum total cholesterol level of 1491±59 mg/dL. One week WHI-P164 therapy reduced the mean serum total cholesterol level of hypercholesterolemic apo e^−/− mice to 1194±84 mg/dL (p=O.006) at a dose level of 8 mg/kg/day (n=19) and to 876±57 mg/dL (p<0.0001) at a dose level of 40 mg/kg/day (n=17) (Table 3).

Row | Compound | Serum total cholesterol [1] [mg/dL] | Serum total cholesterol [2] [mg/dL]
1 | COc1cc2ncnc(Nc3ccc(O)cc3)c2cc1OC [WHI-P131, 4-(4′-Hydroxylphenyl)-amino-6,7-dimethoxyquinazoline] | 433 ± 20 | 1532 ± 77
2 | COc1cc2ncnc(Nc3ccccc3O)c2cc1OC [WHI-P132, 4-(2′-Hydroxylphenyl)-amino-6,7-dimethoxyquinazoline] | – | 1774 ± 61
3 | COc1cc2ncnc(Nc3ccc(O)c(Br)c3)c2cc1OC [WHI-P154, 4-(3′-Bromo-4′-hydroxylphenyl)-amino-6,7-dimethoxyquinazoline] | – | 1492 ± 110
4 | COc1cc2ncnc(Nc3ccc(C)c(Br)c3)c2cc1OC [WHI-P111, 4-(3′-Bromo-4′-methylphenyl)-amino-6,7-dimethoxyquinazoline] | 406 ± 11 | 1425 ± 92
5 | COc1cc2ncnc(Nc3cc(Br)c(O)c(Br)c3)c2cc1OC [WHI-P97, 4-(3′,5′-Dibromo-4′-hydroxylphenyl)-amino-6,7-dimethoxyquinazoline] | 413 ± 18 | 1129 ± 46
6 | COc1cc2ncnc(Nc3ccc(O)c(Cl)c3)c2cc1OC [WHI-P197, 4-(3′-Chloro-4′-hydroxylphenyl)-amino-6,7-dimethoxyquinazoline] | 372 ± 20 | 1621 ± 146
